Experimental data from US6608107B2, “Methods and compositions to treat conditions associated with neovascularization” (Wackvom Limited, priority 2000, dated 2003).
Where “and” joins values, the source holds several entries; their conditions need not be identical. Identical values can stand only once.

How the values were obtained:
[1] = Organ distribution of gossypol enantiomers; conditions: in vivo
endothelial cells = experiment: Endothelial Cell Assay (inhibition of endothelial cell growth); type: cell-based; conditions: for Endothelial cell assay reading, samples 1-5: raw reading per sample
Procedure: The assays were carried out according to the procedures of Connally, et al. (1986) Anal. Biochem. 152:136-4 with modifications (Liang and Wong (1999) ANGIOGENESIS: FROM THE MOLECULAR TO INTEGRATIVE PHARMACOLOGY edited by Maradoudakis, Kluwer Academic/Plenum. Publishers, New York).

In the case of `Cc1cc2c(C(C)C)c(O)c(O)c(C=O)c2c(O)c1-c1c(C)cc2c(C(C)C)c(O)c(O)c(C=O)c2c1O` [(−) gossypol], the “organs in which the enantiomer concentrates” value [1] is reported as “concentrates in the major organs such as the heart, spleen and muscles”.

For `Cc1cc2c(C(C)C)c(O)c(O)c(C=O)c2c(O)c1-c1c(C)cc2c(C(C)C)c(O)c(O)c(C=O)c2c1O` [(+) gossypol], the “organs in which the enantiomer concentrates” value [1] was “concentrates in the kidneys”.

In the case of `Cc1cc2c(C(C)C)c(O)c(O)c(C=O)c2c(O)c1-c1c(C)cc2c(C(C)C)c(O)c(O)c(C=O)c2c1O` [Gossypol Acetate, gossypol acetate], the Inhibition (endothelial cells; Gossypol Acetate, first column (concentration not given)) is reported as 46.2%, the Inhibition (endothelial cells; Gossypol Acetate, second column (concentration not given)) is reported as 21.3% and the “Endothelial cell assay reading, samples 1-5” value (endothelial cells; Gossypol Acetate) is reported as 0.3289 and 0.3165 and 0.3065 and 0.3035 and 0.3269.

With `Cc1cc2c(C(C)C)c(O)c(O)c(C=O)c2c(O)c1-c1c(C)cc2c(C(C)C)c(O)c(O)c(C=O)c2c1O` [Gossypol] the “Endothelial cell assay reading, samples 1-5” value (endothelial cells; Concentration of Gossypol: 25 mM) was 0.0112 and 0.0078 and 0.0057 and 0.0068 and 0.0076 and the inhibition at 25000 µM (endothelial cells; Endothelial cell, Concentration of Gossypol: 25 mM) was 97.6%.
